From the supplement of paper PMC10307832

Legend:
Test in all cases: relative viability (nuclei count vs DMSO), 5 days (fraction); higher = more cells survive
[1] = compound: CCn1c(-c2nonc2N)nc2cnc(Oc3cccc(NC(=O)c4ccc(OCCN5CCOCC5)cc4)c3)cc21 + CC(C)C[C@H](NC(=O)[C@H](Cc1ccccc1)NC(=O)c1cnccn1)B(O)O [Bortezomib] (partner 0.002 µM)
Procedure, shortened: (§1)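 One day after seeding in 1536-well plates, lung cancer cell lines were dosed by pin tool. Dosing was either single-drug or a fixed anchor-drug dose plus five library-drug doses (not always all listed) in √10 steps. After 5 days, nuclei were stained in one fix-and-stain step and counted on 4× images, and relative viability is the nuclei count of treated wells over that of vehicle wells, given as the median of duplicate plates.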

[2] = compound: CCn1c(-c2nonc2N)nc2cnc(Oc3cccc(NC(=O)c4ccc(OCCN5CCOCC5)cc4)c3)cc21 + COc1cc2c(Oc3ccc(NC(=O)C4(C(=O)Nc5ccc(F)cc5)CC4)cc3F)ccnc2cc1OCCCN1CCOCC1 [Foretinib] (partner 0.25 µM)
Procedure, shortened: as §1

[3] = compound: CCn1c(-c2nonc2N)nc2cnc(Oc3cccc(NC(=O)c4ccc(OCCN5CCOCC5)cc4)c3)cc21 + CS(=O)(=O)CCNCc1ccc(-c2ccc3ncnc(Nc4ccc(OCc5cccc(F)c5)c(Cl)c4)c3c2)o1 [Lapatinib] (partner 2 µM)
Procedure, shortened: as §1

[4] = compound: CCC1=CN=CN=C1N2CCN(CC2)CC3=NC4=C(N3)C=C(C=C4)C(F)(F)F + CC(=O)c1c(C)c2cnc(Nc3ccc(N4CCNCC4)cn3)nc2n(C2CCCC2)c1=O [Palbociclib] (partner 0.5 µM)
Procedure, shortened: as §1

Row | Cell Line | relative viability ([1]; first compound 0.04 µM) | relative viability ([1]; first compound 0.1265 µM) | relative viability ([1]; first compound 0.4 µM) | relative viability ([1]; first compound 1.265 µM) | relative viability ([1]; first compound 4 µM) | relative viability ([2]; first compound 0.04 µM) | relative viability ([2]; first compound 0.1265 µM) | relative viability ([2]; first compound 0.4 µM) | relative viability ([2]; first compound 1.265 µM) | relative viability ([2]; first compound 4 µM) | relative viability ([3]; first compound 0.04 µM) | relative viability ([3]; first compound 0.1265 µM) | relative viability ([3]; first compound 0.4 µM) | relative viability ([3]; first compound 1.265 µM) | relative viability ([3]; first compound 4 µM) | relative viability ([4]; first compound 0.04 µM) | relative viability ([4]; first compound 0.1265 µM) | relative viability ([4]; first compound 0.4 µM) | relative viability ([4]; first compound 1.265 µM) | relative viability ([4]; first compound 4 µM)
1 | IA-LM | 1.31 | 0.972 | 0.99 | 0.795 | 0.811 | 1.65 | 1.39 | 1.13 | 1.06 | 0.898 | 1.14 | 0.915 | 1.11 | 0.913 | 0.909 |  |  |  |  | 
2 | LCLC-103H | 1.08 | 1.11 | 0.932 | 0.651 | 0.716 | 0.777 | 0.91 | 0.798 | 0.662 | 0.624 |  |  |  |  |  | 0.501 | 0.471 | 0.436 | 0.485 | 0.448
3 | LK-2 |  |  |  |  |  | 1.23 | 1.19 | 1.28 | 1.26 | 1.28 | 1.2 | 0.95 | 0.605 | 0.706 | 0.949 | 0.685 | 0.469 | 0.752 | 0.381 | 0.594
4 | NCI-H358 |  |  |  |  |  | 0.886 | 0.653 | 0.775 | 0.396 | 0.44 | 0.474 | 0.479 | 0.29 | 0.525 | 0.316 | 0.135 | 0.136 | 0.121 | 0.128 | 0.141
5 | NCI-H441 | 0.484 | 0.895 | 0.458 | 0.42 | 0.374 | 1.12 | 1.04 |  | 0.859 | 0.79 |  |  |  |  |  | 0.205 | 0.204 | 0.204 | 0.17 | 0.257
6 | NCI-H522 |  |  |  |  |  |  |  |  |  |  |  |  |  |  |  | 1.02 | 1.11 | 0.956 | 0.818 | 0.916
7 | NCI-H596 | 0.985 | 0.905 | 0.924 | 0.8 | 0.746 | 0.961 | 0.873 | 0.814 | 0.742 | 0.767 | 1.04 | 0.942 | 0.978 | 0.87 | 0.97 |  |  |  |  | 
8 | NCI-H1299 | 1.06 | 0.975 | 0.929 | 0.825 | 0.734 | 1.03 | 1.06 | 0.969 | 0.858 | 0.789 | 0.951 | 0.86 | 0.836 | 0.724 | 0.625 |  |  |  |  | 
9 | NCI-H1395 |  |  |  |  |  | 1.03 | 0.95 | 0.975 | 0.501 | 0.561 | 1.22 | 0.92 | 0.632 | 0.418 | 0.57 | 0.598 | 0.596 | 0.637 |  | 0.665
10 | NCI-H1563 | 0.793 | 0.821 | 0.669 | 0.753 | 0.603 | 0.792 | 0.786 | 0.769 | 0.85 | 0.666 | 1.01 | 0.822 | 0.804 | 0.782 | 0.673 |  |  |  |  | 
11 | NCI-H1623 |  |  |  |  |  | 1.08 | 0.975 | 0.779 | 0.727 | 0.897 |  |  |  |  |  |  |  |  |  | 
12 | NCI-H1648 |  |  |  |  |  |  |  |  |  |  |  |  |  |  |  | 0.235 |  |  | 0.296 | 0.303
13 | NCI-H1703 | 0.369 | 0.283 | 0.178 | 0.187 | 0.178 | 0.312 | 0.326 | 0.332 | 0.337 | 0.264 | 1.2 | 0.939 | 0.715 | 0.376 | 0.361 |  |  |  |  | 
14 | NCI-H1792 | 1.09 | 1 |  | 0.631 | 0.817 |  |  |  |  |  | 1 | 0.869 |  | 0.567 | 0.793 | 0.68 | 0.616 | 0.687 | 0.542 | 0.611
15 | NCI-H1793 |  |  |  |  |  | 0.712 | 0.572 | 0.734 | 0.76 | 0.725 | 0.555 | 0.569 | 0.582 | 0.414 | 0.418 | 0.248 | 0.294 | 0.29 | 0.269 | 0.279
16 | NCI-H1944 |  |  |  |  |  | 0.772 | 0.869 | 0.978 | 0.861 | 0.658 | 0.822 | 0.699 |  | 0.691 | 0.553 | 0.399 | 0.358 | 0.298 | 0.309 | 0.303
17 | NCI-H2170 |  |  |  |  |  | 1 | 0.99 | 0.997 | 0.939 | 0.848 | 0.261 | 0.278 | 0.274 | 0.258 | 0.27 | 0.397 | 0.402 | 0.375 | 0.385 | 0.386
18 | NCI-H2342 |  |  |  |  |  | 1.16 | 1.18 | 1.01 | 0.771 | 0.917 |  |  |  |  |  | 0.569 | 0.514 | 0.511 | 0.463 | 0.477
19 | SK-MES-1 |  |  |  |  |  | 1.03 | 0.645 | 0.502 | 0.674 | 0.638 | 0.493 | 0.434 | 0.404 | 0.453 | 0.401 | 0.322 | 0.327 | 0.278 | 0.32 | 0.318
20 | SW 900 |  |  |  |  |  | 1.04 | 0.977 | 0.91 | 0.995 | 0.886 |  |  |  |  |  | 0.463 | 0.497 | 0.412 |  | 0.556
